According to paper PMC3038857, “Using Nuclear Receptor Activity to Stratify Hepatocarcinogens” (PLoS ONE, 2011):
Where two headings read alike, the source gives them in different places.

Assays:
LXRa (NR1H3) = biological target: T1, LXRa (NR1H3) (Homo sapiens, UniProt Q13133); experiment: ATG_LXRa_TRANS: Factorial reporter gene assay (HepG2); assay type: cell-based
T1 construct: expressed in transfected cells; host or cells: HepG2
T1 sequence (Q13133 1-447): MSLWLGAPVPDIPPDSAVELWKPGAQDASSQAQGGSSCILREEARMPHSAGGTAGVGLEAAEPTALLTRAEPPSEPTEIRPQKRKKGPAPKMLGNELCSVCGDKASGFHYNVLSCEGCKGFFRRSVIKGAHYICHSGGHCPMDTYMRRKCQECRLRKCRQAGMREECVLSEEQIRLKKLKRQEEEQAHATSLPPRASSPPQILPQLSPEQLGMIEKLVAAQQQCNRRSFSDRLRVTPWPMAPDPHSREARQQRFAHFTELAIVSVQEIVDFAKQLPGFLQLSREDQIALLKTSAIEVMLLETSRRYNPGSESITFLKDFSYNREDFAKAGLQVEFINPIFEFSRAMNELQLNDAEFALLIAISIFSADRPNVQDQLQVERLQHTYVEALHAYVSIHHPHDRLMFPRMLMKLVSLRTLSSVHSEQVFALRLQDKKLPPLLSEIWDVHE
Protocol: A multiple reporter transcription unit (MRTU) library consisting of 48 transcription factor binding sites was transfected into the HepG2 human liver hepatoma cell line. In addition to the cis-acting reporter genes (CIS), a modification of the approach was used to generate a trans-system (TRANS) with a mammalian one-hybrid assay consisting of an additional 25 MRTU library reporting the activity of nuclear receptor super-family members. […] These assays were performed by Attagene Inc. (Morrisville NC) under contract to EPA.
In addition to the cis-acting reporter genes (CIS), a modification of the approach was used to generate a trans-system (TRANS) with a mammalian one-hybrid assay consisting of an additional 25 MRTU library reporting the activity of nuclear receptor super-family members. […] Chemicals were then tested in the CIS and TRANS assays at seven concentrations starting at the MTC and followed by three-fold serial dilutions. These assays were performed by Attagene Inc. (Morrisville NC) under contract to EPA. Detailed description of the methods, data and analysis methods for this dataset will be presented in a separate publication.

CAR (NR1I3) = biological target: T2, CAR (NR1I3) (Homo sapiens, UniProt Q14994); experiment: ATG_PBREM_CIS: Factorial reporter gene assay (HepG2); assay type: cell-based; parameters: endogenous in cells; host or cells: HepG2; scale not given here
T2 sequence (Q14994 1-352): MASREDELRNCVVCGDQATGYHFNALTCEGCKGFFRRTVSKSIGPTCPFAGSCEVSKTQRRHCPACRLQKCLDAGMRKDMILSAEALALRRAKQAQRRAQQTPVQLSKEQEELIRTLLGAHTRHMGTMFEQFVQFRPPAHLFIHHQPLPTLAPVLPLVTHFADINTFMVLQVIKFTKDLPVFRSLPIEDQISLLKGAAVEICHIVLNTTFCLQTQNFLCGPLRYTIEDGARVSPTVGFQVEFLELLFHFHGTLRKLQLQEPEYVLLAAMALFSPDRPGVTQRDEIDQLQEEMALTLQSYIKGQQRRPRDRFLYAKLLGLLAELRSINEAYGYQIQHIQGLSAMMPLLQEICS
Outline: (§1)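 HepG2 cells transfected with multiplexed reporter libraries: cis-acting binding-site reporters (CIS) and a one-hybrid nuclear-receptor trans system (TRANS). Chemicals tested at seven concentrations, starting at the maximum tolerated concentration with three-fold serial dilutions.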

[1] = biological target: T3, PPARG (peroxisome proliferator-activated receptor gamma) (Homo sapiens, UniProt P37231); experiment: ATG_PPARg_TRANS: Factorial reporter gene assay (HepG2); assay type: cell-based
T3 construct: expressed in transfected cells; host or cells: HepG2
T3 sequence (P37231 1-505): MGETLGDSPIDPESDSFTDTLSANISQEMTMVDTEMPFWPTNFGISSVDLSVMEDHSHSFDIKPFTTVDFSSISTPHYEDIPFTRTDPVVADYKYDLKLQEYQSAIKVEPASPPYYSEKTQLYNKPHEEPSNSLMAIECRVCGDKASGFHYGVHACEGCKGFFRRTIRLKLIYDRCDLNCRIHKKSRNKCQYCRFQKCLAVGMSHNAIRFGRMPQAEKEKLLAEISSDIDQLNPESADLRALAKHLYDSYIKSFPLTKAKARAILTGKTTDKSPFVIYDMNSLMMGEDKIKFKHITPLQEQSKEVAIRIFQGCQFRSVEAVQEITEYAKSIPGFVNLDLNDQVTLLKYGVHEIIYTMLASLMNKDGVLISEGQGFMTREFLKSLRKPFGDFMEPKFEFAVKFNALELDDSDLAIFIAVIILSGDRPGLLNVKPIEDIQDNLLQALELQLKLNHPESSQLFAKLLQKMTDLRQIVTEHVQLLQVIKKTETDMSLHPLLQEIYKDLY
Outline: as §1

Rat Liver = conditions: ref ToxRefDB, cited from earlier work
CYP1A2 = experiment: CLZD_CYP1A2: Change in expression of CYP1A2 (primary human hepatocytes); assay type: cell-based; conditions: 24 hr
Outline: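 Five-point concentration series (0.004-40 µM) applied to primary human hepatocytes; 6/24/48 hr timepoints; transcript quantified by multiplexed nuclease protection.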

[2] = HepG2, scale not given, looks like -log10 of molar active concentration, 0 = no activity
[3] = rat chronic study, liver, any lesion, coded 6 / 0, code not explained here
[4] = scale not given, looks like -log10 of molar active concentration, 0 = no activity

C=CCOC(=O)C(C)(C)OC(=O)c1cc(-n2c(=O)cc(C(F)(F)F)n(C)c2=O)ccc1Cl [r47]
ATG_LXRa_TRANS (LXRa (NR1H3); [2]): 0
ATG_PBREM_CIS (CAR (NR1I3); [2]): 0
ATG_PPARg_TRANS [1, 2]: 0
CHR_Rat_Liver_1_AnyLesion (Rat Liver; [3]): 6

CC1=C(C(=O)Nc2ccccc2)SCCO1 [r53]
ATG_LXRa_TRANS (LXRa (NR1H3); [2]): 0
ATG_PPARg_TRANS [1, 2]: 4.119
CLZD_CYP1A2_24 (CYP1A2; [4]): 4.782
CHR_Rat_Liver_1_AnyLesion (Rat Liver; [3]): 0

O=C(Nc1ccccc1-c1ccc(Cl)cc1)c1cccnc1Cl [r42]
ATG_LXRa_TRANS (LXRa (NR1H3); [2]): 0
ATG_PBREM_CIS (CAR (NR1I3); [2]): 0
ATG_PPARg_TRANS [1, 2]: 4.62
CLZD_CYP1A2_24 (CYP1A2; [4]): 4.876
CHR_Rat_Liver_1_AnyLesion (Rat Liver; [3]): 6

COc1ccc(-c2ccccc2)cc1NNC(=O)OC(C)C [r38]
ATG_LXRa_TRANS (LXRa (NR1H3); [2]): 0
ATG_PBREM_CIS (CAR (NR1I3); [2]): 0
ATG_PPARg_TRANS [1, 2]: 4.301
CLZD_CYP1A2_24 (CYP1A2; [4]): 5.768
CHR_Rat_Liver_1_AnyLesion (Rat Liver; [3]): 0

CC(C)OC(=O)Nc1cccc(Cl)c1 [r59]
ATG_LXRa_TRANS (LXRa (NR1H3); [2]): 0
ATG_PPARg_TRANS [1, 2]: 4.301
CLZD_CYP1A2_24 (CYP1A2; [4]): 5.159
CHR_Rat_Liver_1_AnyLesion (Rat Liver; [3]): 6

CC(C)N1C(=O)c2ccccc2NS1(=O)=O [r37]
ATG_LXRa_TRANS (LXRa (NR1H3); [2]): 4.357
ATG_PPARg_TRANS [1, 2]: 0
CLZD_CYP1A2_24 (CYP1A2; [4]): 0
CHR_Rat_Liver_1_AnyLesion (Rat Liver; [3]): 0

CC(C)Oc1cc(-n2nc(C(C)(C)C)oc2=O)c(Cl)cc1Cl [row 225]
ATG_PPARg_TRANS ([1]; HepG2): 4.31
CLZD_CYP1A2_24 (CYP1A2): 5.223
CHR_Rat_Liver_1_AnyLesion (Rat Liver; chronic rat study, liver): 6

CCc1ccc(C(=O)NN(C(=O)c2cc(C)cc(C)c2)C(C)(C)C)cc1 [r290]
ATG_PPARg_TRANS ([1]; HepG2 reporter): 5.201
CLZD_CYP1A2_24 (CYP1A2): 4.896
CHR_Rat_Liver_1_AnyLesion (Rat Liver; chronic study, rat liver): 6

CCC(C)Nc1c([N+](=O)[O-])cc(C(C)(C)C)cc1[N+](=O)[O-] (centres unmarked) [r48]
ATG_LXRa_TRANS (LXRa (NR1H3); [2]): 0
ATG_PPARg_TRANS [1, 2]: 4.523
CLZD_CYP1A2_24 (CYP1A2; [4]): 0

CSc1nc(NC(C)C)nc(NC(C)C)n1 [r256]
ATG_PPARg_TRANS ([1]; HepG2): 4.284
CLZD_CYP1A2_24 (CYP1A2): 5.251
CHR_Rat_Liver_1_AnyLesion (Rat Liver; rat, chronic study): 0

O=C1C2CC=CCC2C(=O)N1SC(Cl)(Cl)Cl (centres unmarked) [r51]
ATG_LXRa_TRANS (LXRa (NR1H3); [2]): 0
ATG_PBREM_CIS (CAR (NR1I3); [2]): 0
ATG_PPARg_TRANS [1, 2]: 0
CLZD_CYP1A2_24 (CYP1A2; [4]): 0

COc1cccc(C(=O)NN(C(=O)c2cc(C)cc(C)c2)C(C)(C)C)c1C [row 202]
CLZD_CYP1A2_24 (CYP1A2): 4.924
CHR_Rat_Liver_1_AnyLesion (Rat Liver; chronic rat study, liver): 6

N#Cc1c(Cl)c(Cl)c(Cl)c(C#N)c1Cl [r58]
ATG_LXRa_TRANS (LXRa (NR1H3); [2]): 0
ATG_PBREM_CIS (CAR (NR1I3); [2]): 0
ATG_PPARg_TRANS [1, 2]: 0
CLZD_CYP1A2_24 (CYP1A2; [4]): 0

C#CCC1=C(C)[C@H](OC(=O)[C@H]2[C@H](C=C(C)C)C2(C)C)CC1=O [r249]
ATG_PBREM_CIS (CAR (NR1I3); HepG2): 5.276
ATG_PPARg_TRANS ([1]; HepG2): 4.357
CLZD_CYP1A2_24 (CYP1A2): 5.3
CHR_Rat_Liver_1_AnyLesion (Rat Liver; rat, chronic study): 6

CCc1nn(C)c(C(=O)NCc2ccc(C(C)(C)C)cc2)c1Cl [r291]
ATG_LXRa_TRANS (LXRa (NR1H3); HepG2 reporter): 6.444
ATG_PBREM_CIS (CAR (NR1I3); HepG2 reporter): 5.745
ATG_PPARg_TRANS ([1]; HepG2 reporter): 5.31
CHR_Rat_Liver_1_AnyLesion (Rat Liver; chronic study, rat liver): 6

CCCC1COC(Cn2cncn2)(c2ccc(Cl)cc2Cl)O1 (centres unmarked) [r262]
CLZD_CYP1A2_24 (CYP1A2): 5.229
CHR_Rat_Liver_1_AnyLesion (Rat Liver; rat, chronic study): 6

CCc1cccc(C)c1N(C(=O)CCl)C(C)COC (centres unmarked) [row 208]
ATG_PPARg_TRANS ([1]; HepG2): 4.854

COC(=O)c1ccccc1CS(=O)(=O)NC(=O)Nc1nc(OC)cc(OC)n1 [r33]
ATG_LXRa_TRANS (LXRa (NR1H3); [2]): 0
ATG_PBREM_CIS (CAR (NR1I3); [2]): 0
ATG_PPARg_TRANS [1, 2]: 0
CLZD_CYP1A2_24 (CYP1A2; [4]): 0

COc1cc(Cl)c(OC)cc1Cl [r57]
ATG_LXRa_TRANS (LXRa (NR1H3); [2]): 0
ATG_PPARg_TRANS [1, 2]: 0
CLZD_CYP1A2_24 (CYP1A2; [4]): 0

CCCN(CCC)c1c([N+](=O)[O-])cc(C(F)(F)F)c(N)c1[N+](=O)[O-] [r252]
ATG_PBREM_CIS (CAR (NR1I3); HepG2): 4.337
CLZD_CYP1A2_24 (CYP1A2): 5.166
CHR_Rat_Liver_1_AnyLesion (Rat Liver; rat, chronic study): 6

CNC(=O)Oc1cccc2ccccc12 [r52]
ATG_LXRa_TRANS (LXRa (NR1H3); [2]): 0
ATG_PBREM_CIS (CAR (NR1I3); [2]): 0
CHR_Rat_Liver_1_AnyLesion (Rat Liver; [3]): 6

CCN(CC)C(=O)C(C)Oc1cccc2ccccc12 (centres unmarked) [row 219]
ATG_PPARg_TRANS ([1]; HepG2): 4.301
CLZD_CYP1A2_24 (CYP1A2): 5.174

CC(C)=CC1C(C(=O)OCc2coc(Cc3ccccc3)c2)C1(C)C (centres unmarked) [r280]
ATG_PPARg_TRANS ([1]; HepG2 reporter): 4.495
CHR_Rat_Liver_1_AnyLesion (Rat Liver; chronic study, rat liver): 6

OB(O)O [r41]
ATG_LXRa_TRANS (LXRa (NR1H3); [2]): 0
ATG_PBREM_CIS (CAR (NR1I3); [2]): 0
ATG_PPARg_TRANS [1, 2]: 0
CHR_Rat_Liver_1_AnyLesion (Rat Liver; [3]): 0
